# From patent US20240408086A1, “USE OF LUVADAXISTAT FOR THE TREATMENT OF COGNITIVE IMPAIRMENT” (TAKEDA PHARMACEUTICAL COMPANY LIMITED, priority 2021, published 2024)
# Test system: rat hippocampus
# Experiment: D-serine on short-term potentiation and long-term depression in rat hippocampal slices
# Parameters: species or system Sprague Dawley rats
# Conditions: 1 mM D-serine vs controls
# Experimental: To obtain rat hippocampal slices, 4-week-old Sprague Dawley rats (provided by Elevage Janvier, Le Genest-Saint-Isle, France) were euthanized by fast decapitation without anesthesia. The brain was quickly removed and soaked in ice-cold oxygenated buffer: 2 mM KCl, 1.2 mM NaH2PO4, 7 mM MgCl2, 0.5 mM CaCl2), 26 mM NaHCO3, 11 mM glucose, and 250 mM sucrose. Hippocampal slices were prepared at 400 μm thickness with a McILWAIN tissue chopper. […] Slices were continuously perfused with oxygenated aCSF during experiments. The animals were housed and used in accordance with French and European legislation.
# Electrophysiological recordings were obtained from a single hippocampal slice placed on the chamber and perfused with aCSF at a constant rate. Extracellular field excitatory postsynaptic potentials (fEPSPs) were recorded in the CA1 stratum radiatum using a glass micropipette filled with aCSF. fEPSPs were evoked by electrical stimulation of Schaffer collaterals/commissural pathway at 0.1 Hz with a glass stimulating electrode placed in the stratum radiatum.
# Acute high doses (1 mM) of D-serine induced hippocampal synaptic plasticity (short-term potentiation and long-term depression) compared with controls in the rat hippocampus (FIGS. 1A-1C). Data in FIGS. 1A and 1B were normalized to the 10-minute control period.
structure (smiles),measurement,setting,value
N[C@H](CO)C(=O)O [D-serine],Depression of EPSP amplitudes (long-term depression),"p=0.0374, unpaired t-test",significantly decreased the depression of EPSP amplitudes
same,Potentiation of excitatory postsynaptic potential (EPSP) amplitudes (short-term potentiation),"p=0.0603, unpaired t-test","increased the potentiation of excitatory postsynaptic potential (EPSP) amplitudes, although this change was not statistically significant"
